Data from patent US20220133702A1, “CYSTIC FIBROSIS TRANSMEMBRANE CONDUCTANCE REGULATOR MODULATORS FOR TREATING AUTOSOMAL DOMINANT POLYCYSTIC KIDNEY DISEASE” (The Johns Hopkins University, priority 2020, published 2022).

What was measured:
[1] = tested on: Pkd1^fl/fl; Pax8^rtTA; TetO-cre mice; assay: Cyst growth and renal function in doxycycline-induced Pkd1 knockout mice; format: in vivo, mouse
Experimental: (FIG. 1A) Representative images of postnatal day (PND) 21 kidney sections from DMSO- and VX-809-treated mice. Significant reductions occurred in (FIG. 1B) cyst index, (FIG. 1C) kidney weight, and (FIG. 1D) kidney-to-body weight ratio. […] Methods: The total kidney area and total cystic area were measured with ImageJ (provided by NIH). Cystic index=100 X (total cystic area/total kidney area) and is expressed as a percentage. Columns represent means±standard error (SEM) for DMSO (vehicle)-treated (n=4-5) and VX-809 mice. *P<0.05; **P<0.01 (for all graphs). Statistical analysis was performed using an unpaired two-tailed Student's t-test;
When treated with doxycycline, these mice express Cre, causing knockout of PC1. […] Kidney weight (FIG. 1C) and kidney-to-body weight ratios (FIG. 1D) were also lower than those of the control mice. There was no difference in overall body weight (FIG. 1E) between the treated and untreated groups. […] The dosage of VX-809 injected was lower than the human pediatric dose, which is 500 mg of Lumacaftor per day; the adult dose is 800 mg/day.
Mouse strain and treatment. Pkd1^fl/fl; Pax8^rtTA; TetO-cre mice on a C57BL/6 background (61) were provided by the Baltimore PKD Center. Mice of both sexes were used in this study. Mice were injected IP with doxycycline (Sigma, #D9891) (4 μg of doxycycline/g body weight) on postnatal day 11 (PND11), PND12, and PND13 to produce very rapid and aggressive cyst growth. On PND21, the mice were euthanized.
To determine the location of PC2 in the cilia, confocal microscopy experiments using the Pkd1^fl/fl; Pax8^rtTA TetO-cre mouse model were conducted. These mice, when injected intraperitoneally (IP) with doxycycline on postnatal days (PND) 11, 12, and 13, developed multiple large cysts and large polycystic kidneys at approximately 3 weeks of age.

CFTR in PN cells = assay: CFTR expression and biotinylation; format: cell-based, mouse; settings: 10 μM, 16 h, vs control PN cells
Experimental: FIG. 19A, FIG. 19B, FIG. 19C, and FIG. 19D show CFTR expression in PN cells treated with VX-809 (10 μM) for 16 h.
The expression of CFTR was evaluated in PN cells treated with VX-809 and control PN cells. PN cells were treated with 10 μM VX-809 for 16 h or a control.

[2] = tested on: kidneys of Pkd1^fl/fl; Pax8^rtTA; TetO-cre mice; assay: Ki67 staining of kidney sections (proliferation); format: in vivo, mouse; settings: 30 mg/kg, vs DMSO-treated mice
Description: FIG. 3A, FIG. 3B, FIG. 3C, and FIG. 3D show cell proliferation is reduced by VX-809. (FIG. 3A-FIG. 3B) Proliferation in kidneys of Pkd1^fl/fl; Pax8^rtTA; TetO-cre mice. Representative images of Ki67 (a cellular marker for proliferation) staining of PN21 kidney sections from DMSO- and VX-809-treated mice. Arrows indicate Ki67-positive cells. Pictures were acquired with a Zeiss microscope equipped with 20× objective. (FIG. 3C) Summary data for Ki67-positive cells. Columns represent averages±standard errors of DMSO (vehicle)-treated (n=3) and VX-809-treated (n=3) mice. Statistical analysis was performed using a two-tailed Student's t test. (FIG. 3D) Proliferation in PN cells. PN cells were treated with VX-809 or DMSO). The bromodeoxyuridine (BrdU) concentration in the cells was measured by using a BrdU cell proliferation assay kit (Millipore Sigma#2750) according to the manufacturer's protocol. Columns represent averages±SEs of the OD of BrdU at 450/550 […]. Data were analyzed using Student's t-test, with n=5-7. Methods were described previously (62). *P>0.05; **P<0.01;
A hallmark of the cysts in ADPKD is an increase in proliferation in response to cAMP. Therefore, it was determined whether VX-809 would affect proliferation.

cAMP in PN cells = assay: Cyclic AMP enzyme immunoassay in cells; format: cell-based, mouse
Experimental: FIG. 4A, FIG. 4B, FIG. 4C, FIG. 4D, and FIG. 4E show (FIG. 4A-FIG. 4B) cAMP levels are reduced by VX-809. (FIG. 4A) cAMP levels in mouse tissue were reduced by VX-809. The kidney samples (n=6) analyzed were taken from those depicted in FIG. 1. (FIG. 4B) Confluent PN and PH cells were treated with VX-809 (10 μM) or DMSO for 16 hand then treated with forskolin (100 μM) for 30 min before the cells were harvested for the assay. Columns represent means±SEM. Statistical analysis was performed using a two-tailed Student's t-test. Each set of data is from three individual wells; Note that resting cAMP is greater in PN vs PH cells as previously shown (25). Also note that forskolin caused a large increase in cAMP. A smaller increase occurred with IBMX. However, the increase induced by forskolin alone was similar to that by IBMX plus forskolin. […] (FIG. 4C, FIG. 4D, and FIG. 4E) Adenylyl cyclase expression. (FIG. 4C) Western blot showing the expression of adenylyl cyclase (AC) 6 and AC3 in treated and control PN cells. (FIG. 4D-FIG. 4E) Columns represent means±SEM of the AC3 and AC6 expression. The data were analyzed by non-parametric t-test. The experiment was repeated four times. For all graphs, *P<0.05, **P<0.01, and ***P<0.001;
It has been shown previously in both animal and cell culture models of ADPKD that cells lacking functional PC1 have elevated cAMP levels when compared to normal. To assess the effect of CFTR correctors, cAMP activity was measured in PC1 conditional knockout mouse kidneys and in PN cells that were either left untreated or treated with VX-809. […] Cells were treated with forskolin, which increased cAMP levels drastically (FIG. 4B). It should be noted that VX-809 reduced the forskolin-induced increase in cAMP, indicating a direct action of VX-809 on adenylyl cyclase activity. […] Treating PN cells with forskolin or IBMX (FIG. 4B) increased the cAMP activity by approximately 10-fold.
Cyclic AMP assay. Confluent cells were treated with VX-809 (10 μM) or DMSO for 16 h before being harvested for assay. Cyclic AMP levels were measured with a direct cAMP Enzyme Immunoassay Kit (Sigma, #CA200) according to the manufacturer's protocol. The results are expressed as pmole/ml. Statistical analysis was performed using a two-tailed Student's t-test.

[3] = 30 mg/kg IP daily PND10 to PND20, vs DMSO-treated mice
[4] = 30 mg/kg IP daily PND10 to PND20, vs control mice
[5] = injected daily PND10 to PND20, vs DMSO-treated mice

Question: How did the overall body weight ([1]; 30 mg/kg IP daily PND10 to PND20, treated vs untreated) turn out when `Cc1ccc(NC(=O)C2(c3ccc4c(c3)OC(F)(F)O4)CC2)nc1-c1cccc(C(=O)O)c1` [VX-809, lumacaftor] was run?
Answer: The overall body weight was “no difference”.

Question: And the “blood urea nitrogen (BUN)” value [1, 3]?
Answer: The value was “lowered”.

Question: And the creatinine [1, 3]?
Answer: Its creatinine is “lowered”.

Question: What about the “cyst growth (cyst index)” value [1, 3] of the same molecule?
Answer: Its value is −60.4%.

Question: And the Kidney weight [1, 4]?
Answer: The Kidney weight was “lower”.

Question: What about the kidney-to-body weight ratios [1, 4] of the same molecule?
Answer: Its kidney-to-body weight ratios is “lower”.

Question: What about the “cyst growth (in words)” value [1, 5] of the same molecule?
Answer: The value was “significantly less cyst growth”.

Question: What about the renal function [1, 5] of the same molecule?
Answer: Its renal function is “improved renal function”.

Question: And the CFTR expression (CFTR in PN cells)?
Answer: Its CFTR expression is “enhanced”.

Question: And the “biotinylation of CFTR” value (CFTR in PN cells)?
Answer: The value was “significantly increased”.

Question: What about the “cell proliferation (Ki67-positive cells)” value [2] of the same molecule?
Answer: The value was “significantly inhibit cell proliferation”.

Question: And the “resting cAMP levels” value (cAMP in PN cells; 10 μM, 16 h, PN cells, no forskolin)?
Answer: Its value is “significantly decreased”.

Question: What about the “forskolin-induced increase in cAMP” value (cAMP in PN cells; 10 μM, 16 h, then forskolin 100 μM 30 min) of the same molecule?
Answer: The value was “reduced”.

Question: And the “forskolin- or IBMX-induced increases in adenylyl cyclase activity” value (cAMP in PN cells; forskolin in combination with IBMX (data bars 5 and 9, FIG. 4B))?
Answer: Its value is “did not affect”.

Question: What about the phosphodiesterase activity (cAMP in PN cells; inferred from forskolin/IBMX experiment) of the same molecule?
Answer: The phosphodiesterase activity was “does not affect”.
